Test results from paper PMC10728220, “Novel 3-(pyrazol-4-yl)-2-(1H-indole-3-carbonyl)acrylonitrile derivatives induce intrinsic and extrinsic apoptotic death mediated P53 in HCT116 colon carcinoma” (Scientific Reports, 2023).

Assays:
[1] = system: Human caspase-8; experiment: ELISA caspase 8 production in HCT116; type: cell-based
Method: The production of caspase 8 was determined using various concentrations of 7f in a concertation-dependent manner. There was a gradual increase in the caspase 8 production level using the following concentrations (0.156, 0.312, 0.625, 1.25, 2.5, 5, and 10 ng/ml). The maximal increase in caspase 8 production was achieved by using 7f concentrations between 5 and 10 ng/ml (Fig. 8).
(§1) The quantitative measurements of Human caspases-3, -8, and -9 concentrations in HCT116 cell culture lysates were performed using ELISA assay. The protocols were followed up based on the manuscript instructions described in the following kits; Invitrogen human Caspase-3 Elisa Kit, Catalog # KHO1091, DRG® human Caspase-8 ELISA Kit, Catalog # (EIA-4863), and DRG® human Caspase-9 ELISA Kit, Catalog # (EIA-4860)respectively. In short, the procedure described in the above protocols was as instructed; all reagents, standards, and samples were prepared. Then, 100 μL of standard or samples were added to each well and incubated at room temperature for 2 h. Afterward, 100 μL of the prepared antibody (anti-rabbit-IgG-HRP) was added to all wells for 1 h at room temperature. […] All readings were measured immediately at a wavelength of 450 nm. From the readings of the standards, a standard curve was plotted using curve fitting software. Then, the concentrations for unknown samples and controls were measured from the standard curve.

[2] = system: Human caspase-9; experiment: ELISA caspase 9 production in HCT116; type: cell-based; conditions: HCT116 treated with 7f
Method: The compound 7f induced caspase 9 production in a dose–response approach. This was achieved by using the following concentrations of chalcone 7f (1.6, 3.1, 6.3, 12.5, 25, 50, 100 ng/ml). There was a continuing rise in the caspase 9 production level by increasing the concentrations regularly. Compound 7f was able to stimulate the production of caspase 9 by inducing a 21.43 ng/ml of caspase 9.
as §1, with “h.” for “h. Afterward, 100 μL of the prepared antibody (anti-rabbit-IgG-HRP) was added to all wells for 1 h at room temperature.”

[3] = system: Human caspase-3; experiment: ELISA caspase 3 production in HCT116; type: cell-based; conditions: HCT116, 7f at its IC50 value
Method: Apoptosis is known and identified by specific characterizations in which the activation of caspases plays an important role. In apoptotic pathways, mechanisms of (activation/inactivation) of these proteins are not fully understood. The significance of understanding the mechanistic machinery that controls programmed cell death, being initiated by various chemotherapeutic agents is very critical and attracts the attention of researchers in this area. In this assay, cells were incubated in the absence or presence of 7f with varying concentrations (39, 78, 156, 313, 625, 1250, and 2500 ng/ml), inducing a concentration-dependent increase in caspase3 production in HCT116. […] A concentration of 7f was used at its IC50 value and compared directly to the control. […] However, there was only 103.5 pg/ml induced by control cells. It was interesting to note that chalcone 7f stimulated the production of caspase 3 protein in HCT116 cells 4.8-fold compared to control as outlined in Fig. 7.
The quantitative measurements of Human caspases-3, -8, and -9 concentrations in HCT116 cell culture lysates were performed using ELISA assay. […] All readings were measured immediately at a wavelength of 450 nm. From the readings of the standards, a standard curve was plotted using curve fitting software. Then, the concentrations for unknown samples and controls were measured from the standard curve.

[4] = system: HCT116 cells; experiment: Flow cytometric analysis of apoptosis (Annexin V-FITC/PI); type: cell-based, human; conditions: HCT116, 7f treated
Method: (§2) Chalcone 7f was selected for more investigations, in attempts to find its molecular action on cancer cells. It illustrated high and very interesting cytotoxicity toward the tested colon cancer cell line (HCT116) as mentioned in the above MTT assay data (Table 1). A flow cytometric report was utilized in this recent paper to investigate the effect of our novel acrylonitrile compound 7f on the cell cycle, HCT116 cells were treated with compound 7f at a dose of (6.76 µg/mL) for 48 h and subjected to flow cytometric analysis.
The percentage of apoptotic cells was detected using Annexin V-FITC kit catalogue number (#K101-25). Briefly, 5 × 10^5 of HCT116 cells were collected by centrifugation. Then, the cell pellet was suspended in 500 µL of 1X Binding Buffer. Afterward, 5 µL of Annexin V-FITC and 5 µL of propidium iodide were added to cells and kept at room temperature for 5 min in the dark[89]–[91]. Finally, the percentage of the apoptotic cells was detected by flow cytometry using the FITC signal detector(usually FL-1) and PI staining by the phycoerythrin emission signal detector (usually FL-2).

[5] = system: HCT116 cells; experiment: Flow cytometric analysis of cell cycle; type: cell-based, human; conditions: HCT116, 6.76 µg/mL, 48 h
Method: as §2
In this study, non-treated HCT116 cells were used as a negative control. After the incubation period of 48 h, HCT116 treated cells were centrifuged at 1,200 rpm at 4 °C for 10 min. After disposing of the supernatant, the cell pellet was suspended in phosphate-buffered saline (PBS) and then centrifuged at 1200 rpm for 10 min. 70% cold ethanol was added overnight to allow the fixation of the cell pellet. After the step of centrifugation, the propidium iodide (PI) mixture was added to the cell pellet for 30 min at room temperature in the darkness. Subsequently, cells were subjected to Epics XL-MCL flow cytometer (BeckmanCoulter, Miami, FL) for analysis of DNA content. The percentage of cells in different phases of the cell cycle was analyzed by Multicycle software (Phoenix Flow Systems, San Diego, CA).

## N#C/C(=C\c1cn(-c2ccccc2)nc1-c1ccc([N+](=O)[O-])cc1)C(=O)c1c[nH]c2ccccc12 [Compound 7f, (E)-2-(1H-Indole-3-carbonyl)-3-(3-(4-nitrophenyl)-1-phenyl-1H-pyrazol-4-yl)acrylonitrile]
[1]; HCT116 treated with 7f versus untreated
  caspase 8 production, fold increase: 3.788 fold
[1]; HCT116 treated with 7f, untreated 0.2914 ng/ml
  caspase 8 production level: 1.104 ng/mL
[2]
  caspase 9 production: 21.43 ng/mL
  caspase 9 production, fold increase compared to control cells: ~4.641 fold
[3]
  caspase 3 production, fold compared to control: 4.8 fold
[3]; control cells 103.5 pg/ml
  caspase 3 protein production: 504.1 pg/mL
[4]; control 0.32%
  early apoptotic induction: 21.38%
[4]; control 1.12%
  necrosis: 6.82%
[5]; control 13.68%
  DNA content in G2/M phase (%DIP G2/M): 2.55%
[5]; control 41.04%
  cells in S phase (%DIP S): 46.12%
[5]; control 45.28%
  cell accumulation in G1 phase (%DIP G1): 51.33%
